Test results as given in BindingDB's records for patent US20240209019 (Ardelyx, 2024).

Target: T1, 11-beta-hydroxysteroid dehydrogenase type 2 (Homo sapiens, UniProt P80365)
T1 sequence (P80365 whole entry): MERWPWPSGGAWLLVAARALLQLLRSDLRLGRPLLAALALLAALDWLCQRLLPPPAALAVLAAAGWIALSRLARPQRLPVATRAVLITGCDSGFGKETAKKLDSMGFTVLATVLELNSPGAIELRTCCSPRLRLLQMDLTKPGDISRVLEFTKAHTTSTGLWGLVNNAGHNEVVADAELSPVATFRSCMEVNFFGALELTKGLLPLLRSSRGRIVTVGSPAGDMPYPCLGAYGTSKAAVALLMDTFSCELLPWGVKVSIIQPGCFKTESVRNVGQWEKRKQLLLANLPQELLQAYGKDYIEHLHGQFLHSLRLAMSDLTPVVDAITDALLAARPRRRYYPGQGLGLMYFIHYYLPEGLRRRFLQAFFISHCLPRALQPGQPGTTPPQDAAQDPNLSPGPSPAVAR
Experiment: HSD2 Activity
Method: Compounds were diluted in DMSO and serial dilutions prepared by titrating in DMSO. Compounds were then diluted into DMEM/F12. Transwell plates containing descending colon cultures were washed twice with DMEM/F12 and compound was added to the apical compartment. Cells were incubated with test compound for 30 minutes at 37° C., 5% CO2 to equilibrate across the cell membrane. A second compound plate was prepared in which the serially diluted compounds in DMSO were diluted into DMEM/F12 containing 40 nM cortisol. Following the 30 minute pre-incubation step, the apical media was aspirated and compounds diluted in DMEM/F12 with 40 nM cortisol were added to the apical side of the transwell. The plate was then incubated for four hours at 37° C., 5% CO2. Cortisol levels were measured using a cortisol HTRF assay kit as described by the manufacturer (Cisbio).

Compound `CCCOCCOCCOCCOC(=O)O[C@H]1CC[C@@]2(C)[C@@H](CC[C@]3(C)[C@@H]2C(=O)C=C2[C@@H]4C[C@@](C)(C(=O)O)CC[C@]4(C)CC[C@]23C)[C@]1(C)C(=O)O` [US20240209019, Compound noid16] has an IC50 of over 10 µM.
